Calls of active or inactive are those of the source. How the calls were made is not given here.

The assay deals with Chaperone protein DnaK (Escherichia coli (strain K12)) (UniProt P0A6Y8). In words: binders of DnaK substrate-binding domain, biophysical, NMR, chaperone (AID 1033). Conditions: Purified DnaK SBD, NMR ligand binding.
Chaperone protein DnaK (Escherichia coli (strain K12)), sequence (P0A6Y8 whole entry, looked up, the tested form may be a part): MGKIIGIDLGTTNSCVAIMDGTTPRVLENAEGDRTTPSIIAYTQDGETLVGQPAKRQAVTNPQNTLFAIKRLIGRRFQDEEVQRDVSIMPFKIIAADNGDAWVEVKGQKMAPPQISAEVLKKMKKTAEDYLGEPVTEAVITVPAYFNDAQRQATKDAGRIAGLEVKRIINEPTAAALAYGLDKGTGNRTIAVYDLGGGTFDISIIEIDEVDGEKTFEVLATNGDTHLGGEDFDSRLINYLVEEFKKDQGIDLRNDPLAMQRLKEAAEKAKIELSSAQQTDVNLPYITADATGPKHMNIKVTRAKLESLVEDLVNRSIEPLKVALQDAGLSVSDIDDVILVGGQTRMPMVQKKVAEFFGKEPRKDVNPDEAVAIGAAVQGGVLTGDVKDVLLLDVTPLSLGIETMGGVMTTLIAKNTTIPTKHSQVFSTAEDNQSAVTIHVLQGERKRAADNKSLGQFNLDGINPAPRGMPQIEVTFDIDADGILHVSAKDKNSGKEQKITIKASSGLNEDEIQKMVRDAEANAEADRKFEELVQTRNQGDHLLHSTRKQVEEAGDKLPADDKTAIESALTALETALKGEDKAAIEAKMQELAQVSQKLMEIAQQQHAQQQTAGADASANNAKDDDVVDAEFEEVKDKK
As to `Cc1nc2nc(-c3ccco3)nn2c(C)c1Cl`, the Kd – broadly, the equilibrium constant for the complex coming apart – is > 4 mM (inactive).
To `Nc1cccnc1Oc1ccc(F)cc1F` belongs > 4 mM (inactive); to `Cc1ccc(S(=O)(=O)CC(N)=O)cc1`, > 4 mM (inactive); to `N#Cc1nc(N2CCCCC2)nc(N2CCOCC2)n1`, > 4 mM (inactive).
With `O=C(NCc1cccc2ccsc12)c1cccs1`, the equilibrium dissociation constant (Kd) is less than 0.2 mM.
To `NC(=O)Cn1cnc(-c2ccc(F)cc2)c1` belongs > 4 mM (inactive); to `O=C1NC(=O)C(=Cc2ccccc2)C(=O)N1`, > 4 mM (inactive); to `CC(=O)Nc1ccc2c(c1)n(C)c(=O)n2C`, > 4 mM (inactive).
For the molecule `Cc1cc(=O)[nH]c(N2CCN(Cc3ccccc3)CC2)n1`, the Kd is > 4 mM (inactive).
Consider `NC1=NC(=O)CC(C(=O)Nc2ccccc2)S1` (stereo not given), for which the Kd was > 4 mM (inactive).
The figure for `CC(=O)O[C@@H]1CC2C(C)(C)C(=O)C3OC3[C@]2(C)C2CC[C@@]3(C)[C@H](c4ccoc4)OC(=O)C4OC43[C@@]21C` (stereo not given in full) is > 4 mM (inactive); for `NC(=O)c1ccsc1NC(=O)c1ccco1` it is > 4 mM (inactive); for `Cc1ccc(C)n1CCN1CCNCC1` it is > 4 mM (inactive).
Take `NC1CCN(Cc2ccccc2)CC1`: the Kd was > 4 mM (inactive).
The figure for `CC[C@@]1(O)C(=O)OCc2c1cc1n(c2=O)Cc2cc3ccccc3nc2-1` is > 4 mM (inactive).
To `Cc1cc(C)n(CC(=O)O)n1` belongs > 4 mM (inactive); to `COC(=O)C[C@H]1C(C)(C)C(=O)[C@@H]2CC3=C(CC[C@]4(C)C3=CC(=O)O[C@H]4c3ccoc3)C1(C)C2=O`, > 4 mM (inactive).
Consider `CCC[C@@H]1CCCCN1`, for which the Kd was > 4 mM (inactive).
The figure for `COc1cccc(S(=O)(=O)Nc2cccnc2)c1` is > 4 mM (inactive); for `Cn1c(=O)c2c(ncn2C)n(C)c1=O` it is > 4 mM (inactive).
The figure for `Cn1c(O)c(C2=NC(=S)NC2=O)c2ccccc21` is > 4 mM (inactive); for `O=C(c1ccccc1)c1cncc(Br)c1` it is > 4 mM (inactive); for `CC(=O)O[C@@H]1CC2C(C)(C)CCC(=O)[C@]2(C)C2CC[C@@]3(C)[C@H](c4ccoc4)OC(=O)C4OC43[C@@]21C` (stereo not given in full) it is > 4 mM (inactive).
The figure for `O=C(Nn1cnnc1)c1cc2c(s1)CCCCC2` is > 4 mM (inactive); for `CC12CNCC(C)(CNC1)C2O` (stereo not given) it is > 4 mM (inactive); for `O=C1CSC(c2ccc3c(c2)OCO3)N1` (stereo not given) it is > 4 mM (inactive).
With `CC(=O)NC(=S)Nc1ccc(N(C)C(C)=O)cc1`, the Kd is > 4 mM (inactive).
Turning to `CC(=O)c1ccc[nH]1`, the Kd is > 4 mM (inactive).
The figure for `Cc1occc1C(=O)N1CCN(S(C)(=O)=O)CC1` is > 4 mM (inactive); for `COc1ccc(-c2cc(=O)c3c(OC(C)=O)cc(OC(C)=O)cc3o2)cc1` it is > 4 mM (inactive); for `O=C(Nc1ccon1)c1ccc(Br)o1` it is > 4 mM (inactive).
The figure for `N[C@@H](C(=O)O)[C@@H](O)[C@H](O)[C@H](O)CO` is > 4 mM (inactive); for `COc1ccc(-c2ccc(SCC(N)=O)nn2)cc1` it is > 4 mM (inactive).
For `O=c1c(-c2cccs2)[n+]([O-])c2ccccc2n1O`, the Kd is > 4 mM (inactive).
The figure for `Cc1noc(C)c1C(=O)N1CCC(Cc2ccccc2)CC1` is > 4 mM (inactive); for `Cc1occc1C(=O)Nc1nccs1` it is > 4 mM (inactive); for `CC(=O)c1c(C)nc2ccccc2c1N` it is > 4 mM (inactive).
On to `O=C(O)C1CC(=O)N(Cc2ccco2)C1` (stereo not given), for which the Kd is > 4 mM (inactive).
The figure for `CCNCC(O)c1ccc([N+](=O)[O-])cc1` (stereo not given) is > 4 mM (inactive); for `O=C(O)/C=C1\NC(=O)c2ccccc21` it is > 4 mM (inactive); for `O=C(Nc1nncs1)c1c(F)c(F)c(F)c(F)c1F` it is > 4 mM (inactive).
The figure for `Cc1nn2c(nc1=O)SCC2(O)c1ccccc1` (stereo not given) is > 4 mM (inactive); for `O=C(O)CCC(=O)c1cccc2ccccc12` it is > 4 mM (inactive).
To `CCN(CC)S(=O)(=O)c1ccc(F)cc1` belongs > 4 mM (inactive); to `CC1(C)N([O-])c2cc([N+](=O)[O-])ccc2[N+]1=O`, > 4 mM (inactive); to `CN(C)/C=N/S(=O)(=O)c1ccccc1`, > 4 mM (inactive).
As to `c1ccc(SCc2nc(-c3ccncc3)no2)cc1`, the Kd was > 4 mM (inactive).
The figure for `CN(C)C(=O)c1ccc(-c2n[nH]c(=O)c3ccccc23)cc1` is > 4 mM (inactive); for `Cn1c(CN2CC(c3ccccc3)CC2=O)n[nH]c1=S` (stereo not given) it is > 4 mM (inactive).
Consider `O=C1NC(=S)N/C1=C\c1ccccc1`, for which the Kd is > 4 mM (inactive).
To `NCc1ccccc1N1CCOCC1` belongs > 4 mM (inactive).
To `c1cncc(C2CCCCN2)c1` (stereo not given) belongs > 4 mM (inactive); to `C/C=C/C=N/NC(=O)c1ccc(=O)n(C)c1`, > 4 mM (inactive); to `C=C1CCC2C(CC2(C)C)C(=C)CC/C1=N/O` (stereo not given), > 4 mM (inactive).
For the molecule `N=Cc1c(O)n(-c2cccc(Cl)c2)c(=O)[nH]c1=O`, the Kd is > 4 mM (inactive).
The figure for `COc1ccc(/C=C2/N=C(N)SC2=O)cc1` is > 4 mM (inactive); for `O=C(NC(=S)NCc1cccnc1)c1ccco1` it is > 4 mM (inactive).
For `CC1SC(=NC(=O)c2ccncc2)NC1=O` (stereo not given), the Kd was > 4 mM (inactive).
To `Cn1c2c(c(=O)n(C)c1=O)CN(Cc1ccco1)CN2` belongs > 4 mM (inactive); to `C[C@]12CCC(=O)C=C1CCC1C2C(=O)C[C@@]2(C)C1CC[C@]2(O)C(=O)CO` (stereo not given in full), > 4 mM (inactive); to `COc1cccc(N2CCN(C(=O)c3cccnc3)CC2)c1`, > 4 mM (inactive).
The figure for `CC(C)n1nnc2cc(C(=O)O)ccc21` is > 4 mM (inactive); for `NCc1ccc2occc2c1` it is > 4 mM (inactive); for `COc1ccc(C2(CN)CCOCC2)cc1OC` it is > 4 mM (inactive).
The figure for `CCc1cccc(C)c1NC(=O)c1cc(C)oc1C` is > 4 mM (inactive); for `Cc1cn2c(-c3cccnc3)nnc2s1` it is > 4 mM (inactive).
Take `CN1C(=O)c2ccc(N3CCCC3)cc2C1=O`: the Kd is > 4 mM (inactive).
The figure for `CC(=O)Nc1ccc(C(=O)N2CCOCC2)cc1Cl` is > 4 mM (inactive); for `C[C@]12CCC3C(CC[C@]4(O)C[C@@H](O)CC[C@]34C=O)[C@@]1(O)CCC2C1=CC(=O)OC1` (stereo not given in full) it is > 4 mM (inactive); for `O=S1(=O)CCC2CC=CCC21` (stereo not given) it is > 4 mM (inactive).
As for `NCc1oc(-c2ccccc2)cc1C(=O)O`, the Kd was > 4 mM (inactive).
For the molecule `CN(C)S(=O)(=O)N1CCc2ccccc21`, the Kd was > 4 mM (inactive).
To `O=C(Oc1ccc2c(c1)CCC2)N1CCOCC1` belongs > 4 mM (inactive); to `Cc1c(C)n2c(SCC(N)=O)nnc2[nH]c1=O`, > 4 mM (inactive); to `CCN(CC)S(=O)(=O)c1cccc2nsnc12`, > 4 mM (inactive).
On to `O=C(Cc1c(F)cccc1Cl)Nc1ccon1`, for which the Kd was > 4 mM (inactive).
Take `Cc1cc(C)n(C/C=C/Cn2nc(C)cc2C)n1`: the Kd is > 4 mM (inactive).
As for `CC[C@]12CCCN3CCc4c(n(c5ccccc45)[C@](O)(C(=O)OC)C1)[C@@H]32`, the Kd is > 4 mM (inactive).
The figure for `O=C1CCNc2ccccc2N1` is > 4 mM (inactive).
Turning to `Cc1cc(O)cc(O)c1C(=O)O`, the Kd was > 4 mM (inactive).
Consider `COC(=O)Cn1c2ccccc2c2nc(C)sc21`, for which the Kd is > 4 mM (inactive).
To `Cc1cc(NC(=O)c2cccc(S(C)(=O)=O)c2)no1` belongs > 4 mM (inactive).
With `Cc1nnsc1C(=O)N(C)c1ccccc1`, the Kd is > 4 mM (inactive).
The figure for `[O-][n+]1cc(O)c(CN2CCOCC2)c2ccccc21` is > 4 mM (inactive); for `CCc1nnc(NC(C)=O)s1` it is > 4 mM (inactive); for `CCOC(=O)CSCC(=O)Nc1nccs1` it is > 4 mM (inactive).
For `Cc1ccccc1NC(=O)c1ccccc1`, the Kd result was “inactive”.
To `O=C1CC2OCC=C3CN4CC[C@]56c7ccccc7N1C5[C@H]2[C@H]3CC46` (stereo not given in full) belongs > 4 mM (inactive).
The figure for `O=C(/C=C/c1ccco1)NC1=NCCS1` is > 4 mM (inactive); for `Cc1cc(=O)n2[nH]cnc2n1` it is > 4 mM (inactive); for `CNC[C@@H](O)c1ccc(O)c(O)c1` it is > 4 mM (inactive).
The figure for `C=C(C)[C@@H]1[C@H]2OC(=O)[C@@H]1[C@]1(O)C[C@H]3O[C@]34C(=O)O[C@H]2[C@]14C` is > 4 mM (inactive); for `CCn1cnc(C(=O)NC)c1C(=O)NC` it is > 4 mM (inactive).
Turning to `Cc1cccc(-n2c(N)cc(=O)[nH]c2=S)c1C`, the Kd was > 4 mM (inactive).
The figure for `CNC(=O)c1c(O)c2ccccc2[nH]c1=O` is > 4 mM (inactive); for `COc1ccc(C)cc1S(N)(=O)=O` it is > 4 mM (inactive).
As for `CSc1nnnn1-c1cccc(O)c1`, the Kd was > 4 mM (inactive).
Regarding `COc1cc(OC)c2ccc(=O)oc2c1`, the Kd was > 4 mM (inactive).
For `O=C(O)CC1C(=O)NCCN1Cc1ccccc1` (stereo not given), the Kd was > 4 mM (inactive).
In the case of `Cc1ccc(-c2nnc3sc(-c4ccncc4)nn23)cc1`, the Kd was > 4 mM (inactive).
With `OCc1ccc2ncccc2c1`, the Kd was > 4 mM (inactive).
With `Nc1nc(SCc2ccccc2)ns1`, the Kd was > 4 mM (inactive).
To `Cc1cc(C)n2nc(N)nc2n1` belongs > 4 mM (inactive).
The figure for `O=C(CS(=O)(=O)c1ccccc1)Nc1nccs1` is > 4 mM (inactive); for `Cc1ccc(C(=O)N2CCC(C(=O)O)CC2)cc1` it is > 4 mM (inactive).

(Values after PubChem BioAssay AID1033 (Sanford-Burnham Center for Chemical Genomics, 2008).)
